From the supplement of paper PMC11208160
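Further: IS621 recombinase and bridge RNA in Escherichia coli cells.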

Assay: recombinant barcode read abundance after kanamycin selection (control-corrected) (log10(CPM+1)); higher = more efficient recombination; sequences stand for … in AGTGCAGAGAAAATCGGCCAGTTTTCTCTGCCTGCAGTCCGCATGCCGT…AGATTTATGCAGCGGACTGCCTTTCTCCCAAAGTGATAAACCGGACAGTATCATGGACCGGTTTTCCCGGTAATCCGTATTTGCAAGGTTGGTTTCACT; site = the 11-nt target
How it was run: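 Targets were screened in pooled form in E. coli against IS621 bridge RNA target-binding loops. Recombination efficiency is based on barcode counts at recombinant junctions in counts per million, averaged and corrected for the control. Numbers are shown as log10(CPM+1), with duplicate plates on chloramphenicol/ampicillin LB agar (control) or chloramphenicol/ampicillin/kanamycin with 0.1 mM IPTG.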
With “TCTTTACCTTGGGTTCTAACCTGTTGCCT (site GCTTTACCTAG)” the “recombinant barcode read abundance (log10)” value was 0.043. With “TCTTTACCTTGGGTTCTAACCTGTTGCCT (site TCTTTACCTAG)” the “recombinant barcode read abundance (log10)” value was 0.0757. For “TGAAATCCTTGGGTTCTAACCTGTTGCCT (site GGATATCCTAG)”, the “recombinant barcode read abundance (log10)” value was 0.848. In the case of “TGAAATCCTTGGGTTCTAACCTGTTGCCT (site TGAAATCCTAG)”, the “recombinant barcode read abundance (log10)” value was 0.304. With “TGAATTACTTGGGTTCTAACCTGTTGCCT (site TGAAATACTAG)” the “recombinant barcode read abundance (log10)” value was 0.116. With “TGAATTACTTGGGTTCTAACCTGTTGCCT (site TGAACTACTAG)” the “recombinant barcode read abundance (log10)” value was 0.108. With “TGAATTACTTGGGTTCTAACCTGTTGCCT (site TGAAGTACTAG)” the “recombinant barcode read abundance (log10)” value was 0.033. With “TGAATTACTTGGGTTCTAACCTGTTGCCT (site TGAATTACTAG)” the “recombinant barcode read abundance (log10)” value was 0.102. With “TGACGTCCTTGGGTTCTAACCTGTTGCCT (site TGACGTCCTAA)” the “recombinant barcode read abundance (log10)” value was 0.455. In the case of “TGACGTCCTTGGGTTCTAACCTGTTGCCT (site TGACGTCCTAC)”, the “recombinant barcode read abundance (log10)” value was 0.315. With “TGACGTCCTTGGGTTCTAACCTGTTGCCT (site TGACGTCCTAG)” the “recombinant barcode read abundance (log10)” value was 0.253. With “TGACGTCCTTGGGTTCTAACCTGTTGCCT (site TGACGTCCTAT)” the “recombinant barcode read abundance (log10)” value was 0.057. With “TGACGTCCTTGGGTTCTAACCTGTTGCGT (site TGACGTCCTAA)” the “recombinant barcode read abundance (log10)” value was 0.0894. With “TGACGTCCTTGGGTTCTAACCTGTTGCGT (site TGACGTCCTAC)” the “recombinant barcode read abundance (log10)” value was 1.72. For “TGACGTCCTTGGGTTCTAACCTGTTGCGT (site TGACGTCCTAG)”, the “recombinant barcode read abundance (log10)” value was 0.0763. For “TGACGTCCTTGGGTTCTAACCTGTTGCGT (site TGACGTCCTAT)”, the “recombinant barcode read abundance (log10)” value was 0.286. With “TGACGTTCTTGGGTTCTAACCTGTTGCCT (site TGACCTTCTAG)” the “recombinant barcode read abundance (log10)” value was 0.189. In the case of “TGACGTTCTTGGGTTCTAACCTGTTGCCT (site TGACGTTCTAG)”, the “recombinant barcode read abundance (log10)” value was 0.313. With “TGAGAGACTTGGGTTCTAACCTGTTGCGT (site ATGAGTCCTTT)” the “recombinant barcode read abundance (log10)” value was 0.0989. For “TGAGAGACTTGGGTTCTAACCTGTTGCGT (site TGAGAGACTAC)”, the “recombinant barcode read abundance (log10)” value was 2.94. In the case of “TGAGGTGCTTGGGTTCTAACCTGTTGCCT (site GGAGGGGCTAG)”, the “recombinant barcode read abundance (log10)” value was 0.193. With “TGAGGTGCTTGGGTTCTAACCTGTTGCCT (site TGAGGTGCTAG)” the “recombinant barcode read abundance (log10)” value was 0.818. In the case of “TGATCCACTTGGGTTCTAACCTGTTGCCT (site AGATCCACTAG)”, the “recombinant barcode read abundance (log10)” value was 0.0667. For “TGATCCACTTGGGTTCTAACCTGTTGCCT (site CGATCCACTAG)”, the “recombinant barcode read abundance (log10)” value was 0.0881. With “TGATCCACTTGGGTTCTAACCTGTTGCCT (site GGATCCACTAG)” the “recombinant barcode read abundance (log10)” value was 0.0751. In the case of “TGATCCACTTGGGTTCTAACCTGTTGCCT (site TGATCCACTAG)”, the “recombinant barcode read abundance (log10)” value was 0.596. For “TGATCTACTTGGGTTCTAACCTGTTGCTT (site TGATCTACTAA)”, the “recombinant barcode read abundance (log10)” value was 0.0729. For “TGATCTACTTGGGTTCTAACCTGTTGCTT (site TGCTCTACTAA)”, the “recombinant barcode read abundance (log10)” value was 0.0846. With “TGATCTACTTGGGTTCTAACCTGTTGCTT (site TGGTCTACTAA)” the “recombinant barcode read abundance (log10)” value was 0.0447. With “TGATCTACTTGGGTTCTAACCTGTTGCTT (site TGTTCTACTAA)” the “recombinant barcode read abundance (log10)” value was 0.0588. For “TGCAAGTCTTGGGTTCTAACCTGTTGCCT (site TGCAAGTCTAG)”, the “recombinant barcode read abundance (log10)” value was 0.361. In the case of “TGCAAGTCTTGGGTTCTAACCTGTTGCCT (site TGCGAGTCTAG)”, the “recombinant barcode read abundance (log10)” value was 0.137. With “TGCACCTCTTGGGTTCTAACCTGTTGCTA (site CAATAGACTAG)” the “recombinant barcode read abundance (log10)” value was 0.0267. In the case of “TGCACCTCTTGGGTTCTAACCTGTTGCTA (site TGCACCTCTTA)”, the “recombinant barcode read abundance (log10)” value was 0.541. With “TGCCAATCTTGGGTTCTAACCTGTTGCCT (site TGCCAATCTAG)” the “recombinant barcode read abundance (log10)” value was 0.242. In the case of “TGCCAATCTTGGGTTCTAACCTGTTGCCT (site TTCCAATCTTG)”, the “recombinant barcode read abundance (log10)” value was 0.0187. With “TGCCATCCTTGGGTTCTAACCTGTTGCAT (site AGCCATCCTAT)” the “recombinant barcode read abundance (log10)” value was 0.111. In the case of “TGCCATCCTTGGGTTCTAACCTGTTGCAT (site TGCCATCCTAT)”, the “recombinant barcode read abundance (log10)” value was 0.544. With “TGCCTCTCTTGGGTTCTAACCTGTTGCCT (site GGCTTCTCTAG)” the “recombinant barcode read abundance (log10)” value was 0.0915. With “TGCCTCTCTTGGGTTCTAACCTGTTGCCT (site TGCCTCTCTAG)” the “recombinant barcode read abundance (log10)” value was 0.172. In the case of “TGCCTGCCTTGGGTTCTAACCTGTTGCAG (site ATAGAATCTGA)”, the “recombinant barcode read abundance (log10)” value was 0.245. With “TGCCTGCCTTGGGTTCTAACCTGTTGCAG (site TGCCTGCCTCT)” the “recombinant barcode read abundance (log10)” value was 0.0105. In the case of “TGCGAGTCTTGGGTTCTAACCTGTTGCCT (site TGCAAGTCTAG)”, the “recombinant barcode read abundance (log10)” value was 0.626. In the case of “TGCGAGTCTTGGGTTCTAACCTGTTGCCT (site TGCGAGTCTAG)”, the “recombinant barcode read abundance (log10)” value was 1.12. With “TGCGCCACTTGGGTTCTAACCTGTTGCCT (site TGCGCAACTAG)” the “recombinant barcode read abundance (log10)” value was 0.113. In the case of “TGCGCCACTTGGGTTCTAACCTGTTGCCT (site TGCGCCACTAG)”, the “recombinant barcode read abundance (log10)” value was 0.517. With “TGCGCCACTTGGGTTCTAACCTGTTGCCT (site TGCGCGACTAG)” the “recombinant barcode read abundance (log10)” value was 0.0341. With “TGCGCCACTTGGGTTCTAACCTGTTGCCT (site TGCGCTACTAG)” the “recombinant barcode read abundance (log10)” value was 0.0797. With “TGCGTCACTTGGGTTCTAACCTGTTGCGT (site TGCGTCACTAC)” the “recombinant barcode read abundance (log10)” value was 1.56. For “TGCGTCACTTGGGTTCTAACCTGTTGCGT (site TGCGTTCCTAC)”, the “recombinant barcode read abundance (log10)” value was 0.0906. For “TGCGTCGCTTGGGTTCTAACCTGTTGCCT (site AGCGTCGCTAG)”, the “recombinant barcode read abundance (log10)” value was 0.149. With “TGCGTCGCTTGGGTTCTAACCTGTTGCCT (site TGCGTCGCTAG)” the “recombinant barcode read abundance (log10)” value was 0.687. For “TGCTAAGCTTGGGTTCTAACCTGTTGCTG (site TCCTAAGCTCC)”, the “recombinant barcode read abundance (log10)” value was 0.288. In the case of “TGCTAAGCTTGGGTTCTAACCTGTTGCTG (site TGCTAAGCTCA)”, the “recombinant barcode read abundance (log10)” value was 0.16. In the case of “TGCTACCCTTGGGTTCTAACCTGTTGCCT (site TACTACCCTAG)”, the “recombinant barcode read abundance (log10)” value was 0.81. In the case of “TGCTACCCTTGGGTTCTAACCTGTTGCCT (site TCCTACCCTAG)”, the “recombinant barcode read abundance (log10)” value was 0.367. In the case of “TGCTACCCTTGGGTTCTAACCTGTTGCCT (site TGCTACCCTAG)”, the “recombinant barcode read abundance (log10)” value was 0.427. With “TGCTACCCTTGGGTTCTAACCTGTTGCCT (site TTCTACCCTAG)” the “recombinant barcode read abundance (log10)” value was 0.213. For “TGCTGATCTTGGGTTCTAACCTGTTGCCT (site AGCTGATCTAG)”, the “recombinant barcode read abundance (log10)” value was 0.114. With “TGCTGATCTTGGGTTCTAACCTGTTGCCT (site CGCTGATCTAG)” the “recombinant barcode read abundance (log10)” value was 0.159. In the case of “TGCTGATCTTGGGTTCTAACCTGTTGCCT (site GGCTGATCTAG)”, the “recombinant barcode read abundance (log10)” value was 0.158. With “TGCTGATCTTGGGTTCTAACCTGTTGCCT (site TGCTGATCTAG)” the “recombinant barcode read abundance (log10)” value was 0.335. In the case of “TGCTGTACTTGGGTTCTAACCTGTTGCCT (site TGCTGTACTAG)”, the “recombinant barcode read abundance (log10)” value was 0. With “TGCTGTACTTGGGTTCTAACCTGTTGCCT (site TGCTGTCCTAG)” the “recombinant barcode read abundance (log10)” value was 0.0484. For “TGCTGTACTTGGGTTCTAACCTGTTGCCT (site TGCTGTGCTAG)”, the “recombinant barcode read abundance (log10)” value was 0.0772. For “TGCTGTACTTGGGTTCTAACCTGTTGCCT (site TGCTGTTCTAG)”, the “recombinant barcode read abundance (log10)” value was 0.0131. In the case of “TGCTGTTCTTGGGTTCTAACCTGTTGCCT (site TGCTGTACTAG)”, the “recombinant barcode read abundance (log10)” value was 0.0922. For “TGCTGTTCTTGGGTTCTAACCTGTTGCCT (site TGCTGTCCTAG)”, the “recombinant barcode read abundance (log10)” value was 0.212. In the case of “TGCTGTTCTTGGGTTCTAACCTGTTGCCT (site TGCTGTGCTAG)”, the “recombinant barcode read abundance (log10)” value was 0.241. With “TGCTGTTCTTGGGTTCTAACCTGTTGCCT (site TGCTGTTCTAG)” the “recombinant barcode read abundance (log10)” value was 0.187. For “TGCTTACCTTGGGTTCTAACCTGTTGCCT (site AGCTTACCTAG)”, the “recombinant barcode read abundance (log10)” value was 0.0889. For “TGCTTACCTTGGGTTCTAACCTGTTGCCT (site CGCTTACCTAG)”, the “recombinant barcode read abundance (log10)” value was 0.332. With “TGCTTACCTTGGGTTCTAACCTGTTGCCT (site GGCTTACCTAG)” the “recombinant barcode read abundance (log10)” value was 0.185. In the case of “TGCTTACCTTGGGTTCTAACCTGTTGCCT (site TGCTTACCTAG)”, the “recombinant barcode read abundance (log10)” value was 0.282. With “TGGAAGTCTTGGGTTCTAACCTGTTGCTT (site TGAAAGCCTAA)” the “recombinant barcode read abundance (log10)” value was 0. With “TGGAAGTCTTGGGTTCTAACCTGTTGCTT (site TGGAAGTCTAA)” the “recombinant barcode read abundance (log10)” value was 0.418. With “TGGAATTCTTGGGTTCTAACCTGTTGCTT (site TGGAATTCTAA)” the “recombinant barcode read abundance (log10)” value was 0.0863. For “TGGAATTCTTGGGTTCTAACCTGTTGCTT (site TGGACTTCTAA)”, the “recombinant barcode read abundance (log10)” value was 0.0255. In the case of “TGGACCACTTGGGTTCTAACCTGTTGCCT (site TGGAACACTAG)”, the “recombinant barcode read abundance (log10)” value was 0.0728. In the case of “TGGACCACTTGGGTTCTAACCTGTTGCCT (site TGGACCACTAG)”, the “recombinant barcode read abundance (log10)” value was 0.765. For “TGGACCACTTGGGTTCTAACCTGTTGCCT (site TGGAGCACTAG)”, the “recombinant barcode read abundance (log10)” value was 0.0755. In the case of “TGGACCACTTGGGTTCTAACCTGTTGCCT (site TGGATCACTAG)”, the “recombinant barcode read abundance (log10)” value was 0.0342. With “TGGACTACTTGGGTTCTAACCTGTTGCTC (site CTACAACCTCT)” the “recombinant barcode read abundance (log10)” value was 0.209. In the case of “TGGACTACTTGGGTTCTAACCTGTTGCTC (site TGGACTACTGA)”, the “recombinant barcode read abundance (log10)” value was 0.195. In the case of “TGGACTTCTTGGGTTCTAACCTGTTGCTG (site TGGACTTCTCA)”, the “recombinant barcode read abundance (log10)” value was 0.0836. With “TGGACTTCTTGGGTTCTAACCTGTTGCTG (site TGGACTTCTGA)” the “recombinant barcode read abundance (log10)” value was 0.215.
